In US11236087B2, “Highly active pyrazolo-piperidine substituted indole-2-carboxamides active against the hepatitis B virus (HBV)” (AiCuris GmbH & Co. KG, priority 2017, dated 2022):
Where two headings read alike, the source gives them in different places.

Columns and labels:
HBV core protein = target: T1, HBV core protein (UniProt P03146); assay: Biochemical capsid assembly assay (fluorescence quenching); parameters: species or system hepatitis B virus; settings: read-out: Assembly Activity (IC50); BODIPY-FL labelled core protein, 300 μM NaCl, read 6 min after start
T1 construct: fused on or other part: BODIPY-FL maleimide label on the C-terminal Cys150
Experimental: Biochemical Capsid Assembly Assay
The screening for assembly effector activity was done based on a fluorescence quenching assay published by Zlotnick et al. (2007). The C-terminal truncated core protein containing 149 amino acids of the N-terminal assembly domain fused to a unique cysteine residue at position 150 and was expressed in E. coli using the pET expression system (Merck Chemicals, Darmstadt). Purification of core dimer protein was performed using a sequence of size exclusion chromatography steps. In brief, the cell pellet from 1 L BL21 (DE3) Rosetta2 culture expressing the coding sequence of core protein cloned NdeI/XhoI into expression plasmid pET21b was treated for 1 h on ice with a native lysis buffer (Qproteome Bacterial Protein Prep Kit; Qiagen, Hilden). After a centrifugation step the supernatant was precipitated during 2 h stirring on ice with 0.23 g/ml of solid ammonium sulfate. Following further centrifugation the resulting pellet was resolved in buffer A (100 mM Tris, pH 7.5; 100 mM NaCl; 2 mM DTT) and was subsequently loaded onto a buffer A equilibrated CaptoCore 700 column (GE HealthCare, Frankfurt). The column flow through containing the assembled HBV capsid was dialyzed against buffer N (50 mM NaHCO3 pH 9.6; 5 mM DTT) before urea was added to a final concentration of 3M to dissociate the capsid into core dimers for 1.5 h on ice. The protein solution was then loaded onto a 1 L Sephacryl S300 column. After elution with buffer N core dimer containing fractions were identified by SDS-PAGE and subsequently pooled and dialyzed against 50 mM HEPES pH 7.5; […]. To improve the assembly capacity of the purified core dimers a second round of assembly and disassembly starting with the addition of 5 M NaCl and including the size exclusion chromatography steps described above was performed. From the last chromatography step core dimer containing fractions were pooled and stored in aliquots at concentrations between 1.5 to 2.0 mg/ml at −80° C.
Immediately before labelling the core protein was reduced by adding freshly prepared DTT in a final concentration of 20 mM. After 40 min incubation on ice storage buffer and DTT was removed using a Sephadex G-25 column (GE HealthCare, Frankfurt) and 50 mM HEPES, pH 7.5. For labelling 1.6 mg/ml core protein was incubated at 4° C. and darkness overnight with BODIPY-FL maleimide (Invitrogen, Karlsruhe) in a final concentration of 1 mM. After labelling the free dye was removed by an additional desalting step using a Sephadex G-25 column. Labelled core dimers were stored in aliquots at 4° C. In the dimeric state the fluorescence signal of the labelled core protein is high and is quenched during the assembly of the core dimers to high molecular capsid structures. The screening assay was performed in black 384 well microtiter plates in a total assay volume of 10 μl using 50 mM HEPES pH 7.5 and 1.0 to 2.0 μM labelled core protein. Each screening compound was added in 8 different concentrations using a 0.5 log-unit serial dilution starting at a final concentration of 100 μM, 31.6 μM or 10 μM, In any case the DMSO concentration over the entire microtiter plate was 0.5%. The assembly reaction was started by the injection of NaCl to a final concentration of […] which induces the assembly process to approximately 25% of the maximal quenched signal. 6 min after starting the reaction the fluorescence signal was measured using a Clariostar plate reader (BMG Labtech, Ortenberg) with an excitation of 477 nm and an emission of 525 nm. As 100% and 0% assembly control HEPES buffer containing 2.5 M and 0 M NaCl was used. Experiments were performed thrice in triplicates. EC50 values were calculated by non-linear regression analysis using the Graph Pad Prism 6 software (GraphPad Software, La Jolla, USA).

[1] = Cell viability assay (AlamarBlue) in HepAD38 cells; settings: human
HBV = assay: Determination of HBV DNA from the supernatants of HepAD38 cells (anti-HBV activity); assay type: cell-based, hepatitis B virus; settings: Hepatitis B virus, read-out: Cell Activity (EC50)
In short: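 HepAD38 cells, tetracycline withdrawn to induce HBV, treated with serial half-log compound dilutions; on day 6 HBV DNA purified from filtered supernatant and quantified by real-time PCR against HBV plasmid standards; EC50 from relative copy numbers by non-linear regression, three experiments in triplicate.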

[2] = 144 h, HBV DNA in HepAD38 supernatant, day 6, qPCR

T1 sequence (P03146 whole entry, looked up, the tested form may be a part): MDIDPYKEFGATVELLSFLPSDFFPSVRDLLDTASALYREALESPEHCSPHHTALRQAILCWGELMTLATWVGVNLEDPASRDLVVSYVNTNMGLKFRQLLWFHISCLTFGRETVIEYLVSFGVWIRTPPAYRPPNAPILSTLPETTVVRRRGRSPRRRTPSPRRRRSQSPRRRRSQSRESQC

Row | Compound | IC50 (HBV core protein) | CC50 at 6 days [1] | EC50 (HBV; [2]) | EC50 (HBV; HePAD38, 144 h)
1 | O=C(c1cc2ccccc2[nH]1)N1CCc2[nH]nc(C(=O)N3CC(O)C3)c2C1 [Example 40, 1-[5-(1H-indole-2-carbonyl)-1H,4H,5H,6H,7H-pyrazolo[4,3-c]pyridine-3-carbonyl]azetidin-3-ol] | < 5 µM | > 100 µM | 1000 to 25000 nM | –
2 | COCC1(N(C)C(=O)c2n[nH]c3c2CN(C(=O)c2cc4c(C)cc(F)cc4[nH]2)CC3)CC1 [Example 269, 5-(6-fluoro-4-methyl-1H-indole-2-carbonyl)-N-[1-(methoxymethyl)cyclopropyl]-N-methyl-1H,4H,5H,6H,7H-pyrazolo[4,3-c]pyridine-3-carboxamide] | < 5 µM | > 10 µM | < 1000 nM | –
3 | CC1c2c(-c3cscn3)n[nH]c2CCN1C(=O)c1cc2ccccc2[nH]1 (stereo not drawn) [Example 36, 2-[4-methyl-3-(1,3-thiazol-4-yl)-1H,4H,5H,6H,7H-pyrazolo[4,3-c]pyridine-5-carbonyl]-1H-indole] | 5 to 10 µM | 88 µM | < 1000 nM | –
4 | CN(C(=O)c1[nH]nc2c1CN(C(=O)c1cc3ccccc3[nH]1)CC2)C1(C)COC1 [Example 251, 5-(1H-indole-2-carbonyl)-N-methyl-N-(3-methyloxetan-3-yl)-2H,4H,5H,6H,7H-pyrazolo[4,3-c]pyridine-3-carboxamide] | < 5 µM | > 10 µM | < 1000 nM | –
5 | O=C(NCCCO)c1n[nH]c2c1CN(C(=O)c1cc3ccccc3[nH]1)CC2 [Example 105, N-(3-hydroxypropyl)-5-(1H-indole-2-carbonyl)-1H,4H,5H,6H,7H-pyrazolo[4,3-c]pyridine-3-carboxamide] | < 100 µM | > 100 µM | 1000 to 25000 nM | –
6 | CN(C(=O)c1n[nH]c2c1CN(C(=O)c1cc3ccccc3[nH]1)CC2)C1CCCCC1 [Example 170, N-cyclohexyl-5-(1H-indole-2-carbonyl)-N-methyl-1H,4H,5H,6H,7H-pyrazolo[4,3-c]pyridine-3-carboxamide] | 5 to 10 µM | > 10 µM | 1000 to 25000 nM | –
7 | CC(C)[C@H](N)C(=O)OCCN(C)C(=O)c1n[nH]c2c1CN(C(=O)c1cc3ccccc3[nH]1)CC2 [Example 48, 2-{1-[5-(1H-indole-2-carbonyl)-1H,4H,5H,6H,7H-pyrazolo[4,3-c]pyridin-3-yl]-N-methylformamido}ethyl (2S)-2-amino-3-methylbutanoate] | < 5 µM | > 32 µM | < 1000 nM | –
8 | CC(C)OC(=O)[C@H](C)NP(=O)(OCCCN(C)C(=O)c1n[nH]c2c1CN(C(=O)c1cc3c(Cl)cccc3[nH]1)CC2)Oc1ccccc1 (stereo partly drawn) [Example 66, propan-2-yl (2S)-2-{[(3-{1-[5-(4-chloro-1H-indole-2-carbonyl)-1H,4H,5H,6H,7H-pyrazolo[4,3-c]pyridin-3-yl]-N-methylformamido}propoxy)(phenoxy)phosphoryl]amino}propanoate] | < 5 µM | > 32 µM | – | < 1000 nM
9 | O=C(c1cc2c(F)cccc2[nH]1)N1CCc2[nH]ncc2C1 [Example 114, 4-fluoro-2-{1H,4H,5H,6H,7H-pyrazolo[4,3-c]pyridine-5-carbonyl}-1H-indole] | < 5 µM | > 100 µM | < 1000 nM | –
10 | CN(C(=O)c1[nH]nc2c1CN(C(=O)c1cc3c(Cl)c(F)ccc3[nH]1)CC2)C1CC1 [Example 324, 5-(4-chloro-5-fluoro-1H-indole-2-carbonyl)-N-cyclopropyl-N-methyl-2H,4H,5H,6H,7H-pyrazolo[4,3-c]pyridine-3-carboxamide] | < 5 µM | > 10 µM | < 1000 nM | –
11 | CCc1cccc2[nH]c(C(=O)N3CCc4n[nH]c(-c5cscn5)c4C3)cc12 [Example 18, 4-ethyl-2-[3-(1,3-thiazol-4-yl)-2H,4H,5H,6H,7H-pyrazolo[4,3-c]pyridine-5-carbonyl]-1H-indole] | < 5 µM | 7.3 µM | < 1000 nM | –
12 | CN(CCN)C(=O)c1[nH]nc2c1CN(C(=O)c1cc3ccccc3[nH]1)CC2 [Example 280, N-(2-aminoethyl)-5-(1H-indole-2-carbonyl)-N-methyl-2H,4H,5H,6H,7H-pyrazolo[4,3-c]pyridine-3-carboxamide] | < 100 µM | > 10 µM | < 1000 nM | –
13 | O=C(c1cc2ccccc2[nH]1)N1CCc2[nH]nc(C(=O)N3CCCO3)c2C1 [Example 133, 2-[3-(1,2-oxazolidine-2-carbonyl)-1H,4H,5H,6H,7H-pyrazolo[4,3-c]pyridine-5-carbonyl]-1H-indole] | < 5 µM | > 100 µM | < 100000 nM | –
14 | O=C(c1cc2ccc(Cl)cc2[nH]1)N1CCc2n[nH]c(-c3cscn3)c2C1 [Example 16, 6-chloro-2-[3-(1,3-thiazol-4-yl)-2H,4H,5H,6H,7H-pyrazolo[4,3-c]pyridine-5-carbonyl]-1H-indole] | < 5 µM | > 10 µM | < 1000 nM | –
15 | CN(C(=O)c1[nH]nc2c1CN(C(=O)c1cc3ccc(Cl)cc3[nH]1)CC2)C1CC1 [Example 325, 5-(6-chloro-1H-indole-2-carbonyl)-N-cyclopropyl-N-methyl-2H,4H,5H,6H,7H-pyrazolo[4,3-c]pyridine-3-carboxamide] | < 5 µM | > 10 µM | < 1000 nM | –
16 | COCC1(N(C)C(=O)c2n[nH]c3c2CN(C(=O)c2cc4c(C(F)(F)F)cccc4[nH]2)CC3)CC1 [Example 302, N-[1-(methoxymethyl)cyclopropyl]-N-methyl-5-[4-(trifluoromethyl)-1H-indole-2-carbonyl]-1H,4H,5H,6H,7H-pyrazolo[4,3-c]pyridine-3-carboxamide] | < 5 µM | > 10 µM | < 1000 nM | –
17 | CON(C)C(=O)c1n[nH]c2c1CN(C(=O)c1cc3c(F)ccc(F)c3[nH]1)CC2 [Example 125, 5-(4,7-difluoro-1H-indole-2-carbonyl)-N-methoxy-N-methyl-1H,4H,5H,6H,7H-pyrazolo[4,3-c]pyridine-3-carboxamide] | < 5 µM | > 100 µM | < 1000 nM | –
18 | O=C(c1cc2c(F)c(F)ccc2[nH]1)N1CCc2n[nH]c(-c3cscn3)c2C1 [Example 22, 4,5-difluoro-2-[3-(1,3-thiazol-4-yl)-2H,4H,5H,6H,7H-pyrazolo[4,3-c]pyridine-5-carbonyl]-1H-indole] | < 5 µM | > 10 µM | < 1000 nM | –
19 | CCc1ccc(F)c2[nH]c(C(=O)N3CCc4[nH]nc(C(=O)N(C)CCO)c4C3)cc12 [Example 9, 5-(4-ethyl-7-fluoro-1H-indole-2-carbonyl)-N-(2-hydroxyethyl)-N-methyl-1H,4H,5H,6H,7H-pyrazolo[4,3-c]pyridine-3-carboxamide] | < 5 µM | > 10 µM | < 1000 nM | –
20 | CC(C)OCC1(N(C)C(=O)c2n[nH]c3c2CN(C(=O)c2cc4ccccc4[nH]2)CC3)CC1 [Example 208, 5-(1H-indole-2-carbonyl)-N-methyl-N-{1-[(propan-2-yloxy)methyl]cyclopropyl}-1H,4H,5H,6H,7H-pyrazolo[4,3-c]pyridine-3-carboxamide] | < 5 µM | > 10 µM | < 1000 nM | –
